Experiments:
CMK cells = experiment: Morphological observation of CMK cells; format: cell-based, human; conditions: 30 μg/ml; 4 days
Procedure: CMK cells, 1×10^5 cells/ml, were incubated in 10% FCS-added RPMI-1640 medium containing Compound 1 for 4 days and observed for the morphology of cells under the phase contrast microscope. A portion of the cell population was taken and a cytospin preparation was prepared and stained with Wright-Giemsa stain for determination of the cell morphology.
Thus, FIGS. 4 and 6 are the phase constrast micrograph and stained map, respectively, of the medium control, and FIGS. 5 and 7 represent the corresponding figures for cells treated with 30 μg/ml of Compound 1.

W/BF1 :(NZW×BXSB)F1 mice = experiment: Blood cell analysis in autoimmune disease mice; format: in vivo
Procedure: W/BF1 :(NZW×BXSB)F1 mice were used at the age of 14 weeks (purchased from Kiwa Experimental Animal). Groups of 10 mice were used in each experiment.
The mice in respective groups were given a diet (Oriental Yeast), which is usually given to this kind of mice, and water.
Compound 1 (Lot No. 9D87M) was used as suspended in a 0.5% solution of carborymethylcellulose (CMC, Cellogan). Compound 1 was administered to mice by oral garage in doses of 100 and 300 mg/kg body weight/day for 6 weeks from 14 weeks of age to 20 weeks of age according to the 5-day administration and 2-day cessation schedule. As a control, an untreated group was provided. […] Statistic analysis was performed by the generalized Wilcoxon test with respect to the untreated group.
(2) For blood cell analysis, the blood was sampled from the fundus oculi at the age of 14, 16, 18 and 20 weeks. Changes in blood cell (white blood cell, red blood cell and platelet) counts were determined using an automatic blood cell analyzer (Coulter JR, Coulter). The differential (neutrophil and 11 lymphocyte) counts were determined using blood smears stained with Wright-Giemsa stain. For statistical analysis, Student's t test was used, taking the untreated group as control, on each blood sampling day.

[1] = tested on: human adult T cell leukemic cells (5S); experiment: ATL-infected cell growth inhibition test: ATLV-infected cells; format: cell-based; conditions: for Number of ATLV-infected cells: 4 days, control 6.5
Procedure: Human adult T cell leukemia cells (5S) were used to prepare a suspension of 1×10^5 cells/ml in RPMI-1640 medium (Gibco) supplemented 10% fetal calf serum (FCS, Gibco) for use as ATL virus-infected cells.
Compound 1 was dissolved in hydrochloric acid, diluted with the same medium as above, neutralized with 2N NaOH and adjusted to concentrations of 1 μg/ml, 10 μg/ml and 30 μg/ml.
The cells prepared in (a) and (b) above were respectively placed in wells of a 24-well culture plate (Nunc), followed by addition of the test compound prepared in (c) (final concentration: 1 μg/ml, 10 μg/ml or 30 μg/ml), and cultured at 37° C. in a 5% carbon dioxide incubator for 4 days. As a control, the medium without addition of the test compound was used. After completion of incubation, the cell suspension in each well was taken for determination of viable cells.

[2] = tested on: Human stomach cancer cells (KATO-III); experiment: Cancer cell growth inhibition, KATO-III; format: cell-based; conditions: control 100
Procedure: The cell concentration was adjusted to 1×10^5 cells/ml using the same medium as used above in (1).
(§1) Test compound 1 was dissolved in acetic acid, followed by dilution with the same medium as used above in (1) and neutralization with 2N NaOH to give final concentrations of 100 μg/ml, 10 μg/ml and 1.0 μg/ml.
(§2) a) The test compound solutions prepared as described above under (3) were added to the HL-60 cell suspension prepared as described above under (1) to final concentrations of 10 μg/ml and 1.0 μg/ml. Using 12-well culture plates (Costar), cultivation was conducted in a 5% carbon dioxide gas incubator maintained at 37° C. for 3 to 4 days. The test compound-free medium was used as a control. Thereafter, the cell suspension in each well was sampled and mixed with 0.2% trypan blue-containing phosphate buffer, and unstained viable cells were counted under a microscope. Based on the counting result, the viable cell concentration was readjusted to 1×10^5 cells/ml, and cultivation was continued under the same conditions.
KATO-III cells prepared as described above under (2) were cultivated in the same manner.

[3] = tested on: Human promyelocytic leukemia cells (HL-60); experiment: Cancer cell growth inhibition, HL-60 (long-term culture, trypan blue viable count); format: cell-based; conditions: control 100
Excerpt: The human promyelocytic leukemia cell line HL-60 is a human leukemia cell line established by Robert Gallo et al. and typical properties thereof are described in the literature [Gallo, R. C. et al., Blood, 54, 713 (1979)]. It is available from the American Type Culture Collection (ATCC) under the accession number ATCC No. CCL-240.
The concentration of HL-60 cells was adjusted to 1×10^5 cells/ml using RPMI-1640 medium (GIBCO) supplemented with 10% of FCS (fetal calf serum; GIBCO).
as §1, §2

## COc1ccc(C(=O)N2CCN(c3ccc4c(c3)CCC(=O)N4)CC2)cc1OC [Compound 1, 6-[4-(3,4-Dimethoxybenzoyl)-1-piperazinyl]-3,4-dihydrocarbostyril]
CMK cells
  Morphology, Wright-Giemsa stained map: budding of the cell membrane and lobulation of the nuclei
  Morphology, phase contrast micrograph: fragmentation of cells like in the process of platelet production
W/BF1 :(NZW×BXSB)F1 mice; 100 mg/kg, 14 weeks of age
  Lymphocytes: 6.55 ± 1.11 ×10^3 /mm^3
  Neutrophils: 0.97 ± 0.21 ×10^3 /mm^3
  Platelets: 1225.2 ± 187.6 ×10^3 /mm^3
  Red blood cells: 9.08 ± 0.19 ×10^6 /mm^3
  White blood cells: 7.53 ± 1.26 ×10^3 /mm^3
W/BF1 :(NZW×BXSB)F1 mice; 100 mg/kg, 16 weeks of age
  Lymphocytes: 9.83 ± 2.72 ×10^3 /mm^3
  Neutrophils: 3.01 ± 2.14 ×10^3 /mm^3
  Platelets: 749.6 ± 116.6 ×10^3 /mm^3
  White blood cells: 12.91 ± 4.76 ×10^3 /mm^3
W/BF1 :(NZW×BXSB)F1 mice; 100 mg/kg, 16 weeks of age, *P < 0.05
  Red blood cells: 9.06 ± 0.19 ×10^6 /mm^3
W/BF1 :(NZW×BXSB)F1 mice; 100 mg/kg, 18 weeks of age
  Lymphocytes: 10.68 ± 3.78 ×10^3 /mm^3
  Neutrophils: 5.82 ± 1.65 ×10^3 /mm^3
  Platelets: 524.0 ± 105.6 ×10^3 /mm^3
  Red blood cells: 8.46 ± 0.34 ×10^6 /mm^3
  White blood cells: 16.49 ± 4.98 ×10^3 /mm^3
W/BF1 :(NZW×BXSB)F1 mice; 100 mg/kg, 20 weeks of age
  Lymphocytes: 8.70 ± 1.02 ×10^3 /mm^3
  Neutrophils: 3.25 ± 1.06 ×10^3 /mm^3
  Platelets: 341.1 ± 111.9 ×10^3 /mm^3
  White blood cells: 11.72 ± 1.71 ×10^3 /mm^3
W/BF1 :(NZW×BXSB)F1 mice; 100 mg/kg, 20 weeks of age, *P < 0.05
  Red blood cells: 8.29 ± 0.37 ×10^6 /mm^3
W/BF1 :(NZW×BXSB)F1 mice; 300 mg/kg/day, 20 weeks of age, vs untreated
  Inhibition of decrease in platelet count (in words): significant inhibition
W/BF1 :(NZW×BXSB)F1 mice; 300 mg/kg, 14 weeks of age
  Lymphocytes: 4.50 ± 0.63 ×10^3 /mm^3
  Neutrophils: 0.79 ± 0.19 ×10^3 /mm^3
  Platelets: 1316.8 ± 86.3 ×10^3 /mm^3
  Red blood cells: 9.17 ± 0.21 ×10^6 /mm^3
  White blood cells: 5.46 ± 0.74 ×10^3 /mm^3
W/BF1 :(NZW×BXSB)F1 mice; 300 mg/kg, 16 weeks of age
  Lymphocytes: 7.01 ± 0.92 ×10^3 /mm^3
  Neutrophils: 1.86 ± 0.40 ×10^3 /mm^3
  Platelets: 1055.8 ± 72.0 ×10^3 /mm^3
  Red blood cells: 8.43 ± 0.30 ×10^6 /mm^3
  White blood cells: 9.36 ± 1.77 ×10^3 /mm^3
W/BF1 :(NZW×BXSB)F1 mice; 300 mg/kg, 18 weeks of age
  Lymphocytes: 6.16 ± 0.88 ×10^3 /mm^3
  Neutrophils: 5.65 ± 2.77 ×10^3 /mm^3
  Platelets: 980.0 ± 114.4 ×10^3 /mm^3
  Red blood cells: 8.83 ± 0.32 ×10^6 /mm^3
  White blood cells: 11.90 ± 3.52 ×10^3 /mm^3
W/BF1 :(NZW×BXSB)F1 mice; 300 mg/kg, 20 weeks of age
  Lymphocytes: 10.73 ± 5.81 ×10^3 /mm^3
  Neutrophils: 2.24 ± 0.23 ×10^3 /mm^3
  Red blood cells: 7.90 ± 0.30 ×10^6 /mm^3
  White blood cells: 12.97 ± 5.95 ×10^3 /mm^3
W/BF1 :(NZW×BXSB)F1 mice; 300 mg/kg, 20 weeks of age, **P < 0.01
  Platelets: 823.3 ± 24.5 ×10^3 /mm^3
W/BF1 :(NZW×BXSB)F1 mice; compared with the platelet count result
  Red blood cell count (in words): A similar result was found for red blood cell count
W/BF1 :(NZW×BXSB)F1 mice; mouse, in vivo
  Effect on white blood cell count (in words): no effect on this parameter
[1]; 1 μg/ml
  Number of ATLV-infected cells: 0.6 ×10^5
[1]; 10 μg/ml
  Number of ATLV-infected cells: 0.2 ×10^5
[1]; 30 μg/ml
  Number of ATLV-infected cells: 3.3 ×10^5
[1]; at least 1 μg/ml
  Growth inhibition of ATLV-infected cells (in words): potent inhibitory effect on the growth of ATLV-infected cells
[2]; 576 h, on day 24, 1.0 μg/ml
  activity at 1 µg/mL: 88 ± 2.3%
[2]; 576 h, on day 24, 10 μg/ml
  activity at 10 µg/mL: 61 ± 1.5%
[2]; 792 h, on day 33, 1.0 μg/ml
  activity at 1 µg/mL: 0%
[2]; 792 h, on day 33, 10 μg/ml
  activity at 10 µg/mL: 0%
[3]; HL-60, 648 h, on day 27, 1.0 μg/ml
  activity at 1 µg/mL: 76 ± 3.8%
[3]; HL-60, 648 h, on day 27, 10 μg/ml
  activity at 10 µg/mL: 54 ± 2.6%
[3]; HL-60, 792 h, on day 33, 1.0 μg/ml
  activity at 1 µg/mL: 0%
[3]; HL-60, 792 h, on day 33, 10 μg/ml
  activity at 10 µg/mL: 0%

Source: patent US5672603A, “Apoptosis regulating composition” (Otsuka Pharmaceutical Co., Ltd., priority 1991, dated 1997)
